Active and inactive are the calls of the source. The calls are words filed in the database; no cut-off is given here.
Legend:
Mus musculus [1] = assay: Anti-inflammatory activity in TREX1 D18N mouse model assessed as reduction in Isg15 mRNA expression in heart at 10 mg/kg, ip measured after 2 weeks; type: functional, organism-based
Mus musculus [2] = assay: Anti-inflammatory activity in TREX1 D18N mouse model assessed as reduction in IL6 mRNA expression in kidney at 10 mg/kg, ip measured after 2 weeks; type: functional, organism-based
[3] = Metabolic stability in rat liver microsomes assessed as half life; type: ADME, Microsome
[4] = target: Stimulator of interferon genes protein (Homo sapiens) (UniProt Q86WV6); assay: Inhibition of STING downstream signalling in human THP1-Dual cells assessed as inhibition of MSA-2 induced IFN-beta mRNA expression at 0.3 to 3 uM pre-treated for 1 hr followed by stimulated with MSA-2 measured after 4 hrs by real-time PCR analysis; type: cell-based; conditions: dose 0.3-3 µM, time 5.0 hrs
Mus musculus [5] = assay: Anti-inflammatory activity against MSA-2 induced C57BL/6 mouse inflammation model assessed as inhibition of MSA-2 induced IP-10 level in kidney at 10 mg/kg, ip pre-treated for 1 hr followed by stimulated with MSA-2 for 4 hrs by ELISA; type: functional, organism-based; conditions: time 5.0 hrs
[6] = target: Stimulator of interferon genes protein (Homo sapiens) (UniProt Q86WV6); assay: Inhibition of STING downstream signalling in human THP1-Dual cells assessed as inhibition of HT-DNA induced ISG15 mRNA expression at 0.3 to 3 uM pre-treated for 1 hr followed by stimulated with HT-DNA measured after 4 hrs by real-time PCR analysis; type: cell-based; conditions: dose 0.3-3 µM, time 5.0 hrs
[7] = MRT (0 to infinity) in Sprague-Dawley rat at 1 mg/kg, iv; type: ADME, organism-based; conditions: Sprague-Dawley, in vivo
[8] = Metabolic stability in human liver microsomes assessed as microsomal intrinsic clearance; type: ADME, Microsome; conditions: read-out: CLH
[9] = target: Stimulator of interferon genes protein (Homo sapiens) (UniProt Q86WV6); assay: Inhibition of STING downstream signalling in human THP1-Dual cells assessed as inhibition of HT-DNA induced TNF-alpha mRNA expression at 0.3 to 3 uM pre-treated for 1 hr followed by stimulated with HT-DNA measured after 4 hrs by real-time PCR analysis; type: cell-based; conditions: dose 0.3-3 µM, time 5.0 hrs
[10] = Metabolic stability in rat liver microsomes assessed as liver intrinsic clearance; type: ADME, Microsome
[11] = target: Stimulator of interferon genes protein (Homo sapiens) (UniProt Q86WV6); assay: Inhibition of STING downstream signalling in human THP1-Dual cells assessed as inhibition of cGAMP induced IFN-beta mRNA expression at 0.3 to 3 uM pre-treated for 1 hr followed by stimulated with cGAMP measured after 4 hrs by real-time PCR analysis; type: cell-based; conditions: dose 0.3-3 µM, time 5.0 hrs
Mus musculus [12] = assay: Anti-inflammatory activity against MSA-2 induced C57BL/6 mouse inflammation model assessed as inhibition of MSA-2 induced Isg56 RNA expression in kidney at 10 mg/kg, ip pre-treated for 1 hr followed by stimulated with MSA-2 for 4 hrs by real-time PCR analysis; type: functional, organism-based; conditions: time 5.0 hrs
[13] = AUC (0 to infinity) in Sprague-Dawley rat at 3 mg/kg, po; type: ADME, organism-based; conditions: in vivo
[14] = target: Stimulator of interferon genes protein (Homo sapiens) (UniProt Q86WV6); assay: Inhibition of human wild type STING (R232) expressed in human 293-Dual hSTING-R232 cells assessed as inhibition of secreted luciferase reporter of interferon stimulated gene (ISG) measured after 24 hrs incubation; type: cell-based
[15] = Volume of distribution at steady state in Sprague-Dawley rat at 1 mg/kg, iv; type: ADME, organism-based; conditions: Sprague-Dawley, in vivo, read-out: Vdss
[16] = Clearance in Sprague-Dawley rat at 1 mg/kg, iv; type: ADME, organism-based; conditions: in vivo
Mus musculus [17] = assay: Anti-inflammatory activity against Cisplatin induced C57BL/6 mouse kidney inflammation model assessed as suppression of Cisplatin induced Ifn-beta mRNA level in kidney at 5 mg/kg, ip treated for 3 days by real-time PCR analysis; type: functional, organism-based; conditions: time 3.0 day
Mus musculus [18] = assay: Anti-inflammatory activity against Cisplatin induced C57BL/6 mouse kidney inflammation model assessed as suppression of Cisplatin induced Isg15 mRNA level in kidney at 5 mg/kg, ip treated for 3 days by real-time PCR analysis; type: functional, organism-based; conditions: time 3.0 day
[19] = target: T1, Stimulator of interferon genes protein (Mus musculus) (UniProt Q3TBT3); assay: Inhibition of STING downstream signalling in mouse RAW264.7 cells assessed as inhibition of DMAAA induced Isg15 mRNA level pre-treated for 1 hr followed by stimulated with DMAAA measured after 4 hrs by real-time PCR analysis; type: cell-based; conditions: dose 0.3-3 µM, time 5.0 hrs
T1 sequence (whole entry): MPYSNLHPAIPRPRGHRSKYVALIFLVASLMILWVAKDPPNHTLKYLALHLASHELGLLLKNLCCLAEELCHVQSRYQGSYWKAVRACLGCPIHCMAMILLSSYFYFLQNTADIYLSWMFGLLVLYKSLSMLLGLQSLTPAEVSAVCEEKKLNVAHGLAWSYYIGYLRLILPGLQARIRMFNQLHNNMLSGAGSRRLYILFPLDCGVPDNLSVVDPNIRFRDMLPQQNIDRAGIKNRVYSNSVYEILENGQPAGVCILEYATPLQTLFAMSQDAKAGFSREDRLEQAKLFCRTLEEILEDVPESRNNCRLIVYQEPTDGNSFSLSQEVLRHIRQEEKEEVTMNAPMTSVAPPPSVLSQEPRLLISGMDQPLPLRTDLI

[20] = target: T1, Stimulator of interferon genes protein (Mus musculus); assay: Inhibition of STING downstream signalling in mouse BMDM cells assessed as inhibition of MSA-2 induced TBK1 phosphorylation pre-treated for 1 hr followed by stimulated with MSA-2 measured after 4 hrs by Western blot analysis; type: cell-based; conditions: dose 0.3-3 µM, time 5.0 hrs
Mus musculus [21] = assay: Anti-inflammatory activity against Cisplatin induced C57BL/6 mouse kidney inflammation model assessed as suppression of Cisplatin induced Isg56 mRNA level in kidney at 5 mg/kg, ip treated for 3 days by real-time PCR analysis; type: functional, organism-based; conditions: time 3.0 day
[22] = Metabolic stability in mouse liver microsomes assessed as microsomal intrinsic clearance; type: ADME, Microsome; conditions: read-out: CLH
Mus musculus [23] = assay: Anti-inflammatory activity against Cisplatin induced C57BL/6 mouse kidney inflammation model assessed as suppression of Cisplatin induced Cxcl-10 mRNA level in kidney at 5 mg/kg, ip treated for 3 days by real-time PCR analysis; type: functional, organism-based; conditions: time 3.0 day
[24] = Cytotoxicity against mouse RAW-Lucia ISG cells assessed as cell viability measured after 24 hrs by CCK8 assay; type: toxicity, cell-based
[25] = target: T1, Stimulator of interferon genes protein (Mus musculus); assay: Inhibition of STING downstream signalling in mouse BMDM cells assessed as inhibition of MSA-2 induced Isg56 mRNA level pre-treated for 1 hr followed by stimulated with MSA-2 measured after 4 hrs by real-time PCR analysis; type: cell-based; conditions: dose 0.3-3 µM, time 5.0 hrs
Mus musculus [26] = assay: Effect on Ifn-beta expression in Cisplatin induced C57BL/6 STING-KO mouse kidney inflammation model at 5 mg/kg, ip treated for 3 days by real-time PCR analysis; type: functional, organism-based; conditions: time 3.0 day
[27] = Half life in Sprague-Dawley rat at 1 mg/kg, iv; type: ADME, organism-based; conditions: in vivo
Mus musculus [28] = assay: Effect on […] expression in Cisplatin induced C57BL/6 STING-KO mouse kidney inflammation model at 5 mg/kg, ip treated for 3 days by real-time PCR analysis; type: functional, organism-based; conditions: time 3.0 day
Mus musculus [29] = assay: Anti-inflammatory activity in TREX1 D18N mouse model assessed as reduction in Cxcl10 mRNA expression in kidney at 10 mg/kg, ip measured after 2 weeks; type: functional, organism-based
[30] = target: Stimulator of interferon genes protein (Homo sapiens) (UniProt Q86WV6); assay: Inhibition of human wild type STING (R232) expressed in human 293-Dual hSTING-R232 cells assessed as reduction in cGAMP-induced IL-6 expression; type: cell-based

Sequence of Stimulator of interferon genes protein (Homo sapiens) (Q86WV6 whole entry): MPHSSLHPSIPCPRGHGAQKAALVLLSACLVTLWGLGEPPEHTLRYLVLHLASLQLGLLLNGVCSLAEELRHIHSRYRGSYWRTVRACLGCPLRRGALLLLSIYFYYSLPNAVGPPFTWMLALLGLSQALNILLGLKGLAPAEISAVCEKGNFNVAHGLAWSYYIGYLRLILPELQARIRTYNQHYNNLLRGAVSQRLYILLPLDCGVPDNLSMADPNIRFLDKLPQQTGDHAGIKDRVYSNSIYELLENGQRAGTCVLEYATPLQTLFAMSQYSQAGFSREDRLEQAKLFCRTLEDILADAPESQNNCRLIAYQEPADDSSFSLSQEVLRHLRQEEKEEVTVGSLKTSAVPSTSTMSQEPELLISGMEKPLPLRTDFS

In the case of N#CC/C=C/c1ccc2[nH]cc(NC(=O)Nc3ccc4c(c3)OC(F)(F)O4)c2c1, the Activity (Mus musculus [1]) is reported as “Active”, the Activity (Mus musculus [2]) is reported as “Active” and the half-life [3] is reported as 38.5 min. For the same compound, the inhibition [4] was “Active”, the inhibition (Mus musculus [5]) was “Active” and the inhibition [6] was “Active”. For the same compound, the MRT inf [7] was 22.8 min, the microsomal CLint [8] was 41 µL/min/mg and the inhibition [9] was “Active”. For the same compound, the CLH [10] was 64.8 µL/min/mg, the inhibition [11] was “Active” and the inhibition (Mus musculus [12]) was “Active”. The AUC(0-inf) [13] was 74.8 ng·h/mL, the inhibition [14] was “Active” and the Vd [15] was 2.38 L/kg. The clearance [16] was 88.1 mL/min/kg, the inhibition (Mus musculus [17]) was “Active” and the inhibition (Mus musculus [18]) was “Active”. The inhibition [19] was “Dose-dependent-effect”, the inhibition [20] was “Dose-dependent-effect” and the inhibition (Mus musculus [21]) was “Active”. The microsomal CLint [22] was 52 µL/min/mg, the inhibition (Mus musculus [23]) was “Active” and the Activity [24] was “Non-toxic”. The inhibition [25] was “Dose-dependent-effect”, the Activity (Mus musculus [26]) was “inactive” and the half-life [27] was 19.8 min. The Activity (Mus musculus [28]) was “inactive”, the Activity (Mus musculus [29]) was “Active” and the inhibition [30] was “Active”.
